Assay results from patent US20110039721A1, “METHOD FOR PREDICTION ABOUT CARCINOGENICITY OF SUBSTANCE IN RODENT” (Chemicals Evaluation and Research Institute, priority 2007, published 2011).

Experiments:
liver = settings: classification of the substance (Cr+/Cr−); cited from earlier work
rodent = settings: classification of the substance (C+/C−); cited from earlier work
[1] = classification of the substance (M+/M−); cited from earlier work
[2] = tested on: mRNA expressed from the genes (A) to (D) in rat liver; assay: Behavior of genes (mRNA expression level, oligo-DNA microarray) in rat liver after 28-day oral administration; type: in vivo; settings: for Behavior of gene caused by administration of chemical substance, Gene No. 4846 / Behavior of gene caused by administration of chemical substance, Gene No. 2026 / Behavior of gene caused by administration of chemical substance, Gene No. 4218 / Behavior of gene caused by administration of chemical substance, Gene No. 6182 / Behavior of gene caused by administration of chemical substance, Gene No. 5600: gene group (A); for Behavior of gene caused by administration of chemical substance, Gene No. 4846: Unigene No. Rn.144554; for Behavior of gene caused by administration of chemical substance, Gene No. 2026 / Behavior of gene caused by administration of chemical substance, Gene No. 4218: Unigene No. Rn.167075; for Behavior of gene caused by administration of chemical substance, Gene No. 6182: Unigene No. Rn.5834; for Behavior of gene caused by administration of chemical substance, Gene No. 5600: Unigene No. Rn.9836; for Behavior of gene caused by administration of chemical substance, Gene No. 1494 / Behavior of gene caused by administration of chemical substance, Gene No. 2045 / Behavior of gene caused by administration of chemical substance, Gene No. 2203: gene group (B); for Behavior of gene caused by administration of chemical substance, Gene No. 1494: Unigene No. Rn.1430; for Behavior of gene caused by administration of chemical substance, Gene No. 2045: Unigene No. Rn.19329; for Behavior of gene caused by administration of chemical substance, Gene No. 2203: Unigene No. Rn.21240; for Behavior of gene caused by administration of chemical substance, Gene No. 533 / Behavior of gene caused by administration of chemical substance, Gene No. 725 / Behavior of gene caused by administration of chemical substance, Gene No. 1163 / Behavior of gene caused by administration of chemical substance, Gene No. 4973 / Behavior of gene caused by administration of chemical substance, Gene No. 4095 / Behavior of gene caused by administration of chemical substance, Gene No. 1334 / Behavior of gene caused by administration of chemical substance, Gene No. 6620 / Behavior of gene caused by administration of chemical substance, Gene No. 6303 / Behavior of gene caused by administration of chemical substance, Gene No. 5878 / Behavior of gene caused by administration of chemical substance, Gene No. 1131 / Behavior of gene caused by administration of chemical substance, Gene No. 1562 / Behavior of gene caused by administration of chemical substance, Gene No. 1741 / Behavior of gene caused by administration of chemical substance, Gene No. 893 / Behavior of gene caused by administration of chemical substance, Gene No. 6026 / Behavior of gene caused by administration of chemical substance, Gene No. 154 / Behavior of gene caused by administration of chemical substance, Gene No. 1993 / Behavior of gene caused by administration of chemical substance, Gene No. 813 / Behavior of gene caused by administration of chemical substance, Gene No. 2494 / Behavior of gene caused by administration of chemical substance, Gene No. 2546 / Behavior of gene caused by administration of chemical substance, Gene No. 3776 / Behavior of gene caused by administration of chemical substance, Gene No. 3929 / Behavior of gene caused by administration of chemical substance, Gene No. 1119 / Behavior of gene caused by administration of chemical substance, Gene No. 6742 / Behavior of gene caused by administration of chemical substance, Gene No. 5634: gene group (C); for Behavior of gene caused by administration of chemical substance, Gene No. 533: Unigene No. Rn.106184; for Behavior of gene caused by administration of chemical substance, Gene No. 725: Unigene No. Rn.108075; for Behavior of gene caused by administration of chemical substance, Gene No. 1163: Unigene No. Rn.11766; for Behavior of gene caused by administration of chemical substance, Gene No. 4973: Unigene No. Rn.118529; for Behavior of gene caused by administration of chemical substance, Gene No. 4095: Unigene No. Rn.119024; for Behavior of gene caused by administration of chemical substance, Gene No. 1334 / Behavior of gene caused by administration of chemical substance, Gene No. 6620: Unigene No. Rn.120914; for Behavior of gene caused by administration of chemical substance, Gene No. 6303: Unigene No. Rn.123063; for Behavior of gene caused by administration of chemical substance, Gene No. 5878: Unigene No. Rn.143213; for Behavior of gene caused by administration of chemical substance, Gene No. 1131: Unigene No. Rn.144946; for Behavior of gene caused by administration of chemical substance, Gene No. 1562: Unigene No. Rn.14744; for Behavior of gene caused by administration of chemical substance, Gene No. 1741: Unigene No. Rn.1647; for Behavior of gene caused by administration of chemical substance, Gene No. 893: Unigene No. Rn.164817; for Behavior of gene caused by administration of chemical substance, Gene No. 6026: Unigene No. Rn.167685; for Behavior of gene caused by administration of chemical substance, Gene No. 154: Unigene No. Rn.185941; for Behavior of gene caused by administration of chemical substance, Gene No. 1993: Unigene No. Rn.18728; for Behavior of gene caused by administration of chemical substance, Gene No. 813: Unigene No. Rn.201760; for Behavior of gene caused by administration of chemical substance, Gene No. 2494: Unigene No. Rn.23969; for Behavior of gene caused by administration of chemical substance, Gene No. 2546: Unigene No. Rn.24561; for Behavior of gene caused by administration of chemical substance, Gene No. 3776: Unigene No. Rn.43232; for Behavior of gene caused by administration of chemical substance, Gene No. 3929: Unigene No. Rn.4620; for Behavior of gene caused by administration of chemical substance, Gene No. 1119: Unigene No. Rn.9757; for Behavior of gene caused by administration of chemical substance, Gene No. 6742: Unigene No. Rn.9779; for Behavior of gene caused by administration of chemical substance, Gene No. 5634: Unigene No. Rn.9862; for Behavior of gene caused by administration of chemical substance, Gene No. 5726: gene group (D), Unigene No. Rn.9939
Method in brief: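 Liver mRNA measured by oligo-DNA microarray after 28 days of once-daily oral gavage in 5-week-old male F344 rats (n=4 per group), with vehicle controls given equal solvent volume. Significance threshold: 1.5-fold up or down versus control, with changes opposite in direction to other carcinogens counted as not significant.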

Structure (SMILES): CC1CCC(C(C)C)C(O)C1 (racemic) [TS034, DL-Menthol]
- Liver carcinogenicity (liver): Cr−
- Carcinogenicity (rodent): C−
- Mutagenicity by Ames test [1]: M−
- Behavior of gene caused by administration of chemical substance, Gene No. 4846 [2]: −
- Behavior of gene caused by administration of chemical substance, Gene No. 2026 [2]: +
- Behavior of gene caused by administration of chemical substance, Gene No. 4218 [2]: −
- Behavior of gene caused by administration of chemical substance, Gene No. 6182 [2]: −
- Behavior of gene caused by administration of chemical substance, Gene No. 5600 [2]: −
- Behavior of gene caused by administration of chemical substance, Gene No. 1494 [2]: +
- Behavior of gene caused by administration of chemical substance, Gene No. 2045 [2]: +
- Behavior of gene caused by administration of chemical substance, Gene No. 2203 [2]: +
- Behavior of gene caused by administration of chemical substance, Gene No. 533 [2]: +
- Behavior of gene caused by administration of chemical substance, Gene No. 725 [2]: −
- Behavior of gene caused by administration of chemical substance, Gene No. 1163 [2]: −
- Behavior of gene caused by administration of chemical substance, Gene No. 4973 [2]: −
- Behavior of gene caused by administration of chemical substance, Gene No. 4095 [2]: −
- Behavior of gene caused by administration of chemical substance, Gene No. 1334 [2]: −
- Behavior of gene caused by administration of chemical substance, Gene No. 6620 [2]: −
- Behavior of gene caused by administration of chemical substance, Gene No. 6303 [2]: +
- Behavior of gene caused by administration of chemical substance, Gene No. 5878 [2]: −
- Behavior of gene caused by administration of chemical substance, Gene No. 1131 [2]: −
- Behavior of gene caused by administration of chemical substance, Gene No. 1562 [2]: −
- Behavior of gene caused by administration of chemical substance, Gene No. 1741 [2]: −
- Behavior of gene caused by administration of chemical substance, Gene No. 893 [2]: −
- Behavior of gene caused by administration of chemical substance, Gene No. 6026 [2]: −
- Behavior of gene caused by administration of chemical substance, Gene No. 154 [2]: +
- Behavior of gene caused by administration of chemical substance, Gene No. 1993 [2]: −
- Behavior of gene caused by administration of chemical substance, Gene No. 813 [2]: −
- Behavior of gene caused by administration of chemical substance, Gene No. 2494 [2]: −
- Behavior of gene caused by administration of chemical substance, Gene No. 2546 [2]: −
- Behavior of gene caused by administration of chemical substance, Gene No. 3776 [2]: −
- Behavior of gene caused by administration of chemical substance, Gene No. 3929 [2]: −
- Behavior of gene caused by administration of chemical substance, Gene No. 1119 [2]: −
- Behavior of gene caused by administration of chemical substance, Gene No. 6742 [2]: −
- Behavior of gene caused by administration of chemical substance, Gene No. 5634 [2]: −
- Behavior of gene caused by administration of chemical substance, Gene No. 5726 [2]: −

Structure (SMILES): Cc1ccc2cc3c(ccc4ccccc43)c3c2c1CC3 [TS048, 3-Methylcholanthrene]
- Liver carcinogenicity (liver): Cr−
- Carcinogenicity (rodent): C+
- Mutagenicity by Ames test [1]: M+
- Behavior of gene caused by administration of chemical substance, Gene No. 4846 ([2]; mRNA vs vehicle control group): −
- Behavior of gene caused by administration of chemical substance, Gene No. 2026 ([2]; mRNA vs vehicle control group): +
- Behavior of gene caused by administration of chemical substance, Gene No. 4218 ([2]; mRNA vs vehicle control group): −
- Behavior of gene caused by administration of chemical substance, Gene No. 6182 ([2]; mRNA vs vehicle control group): −
- Behavior of gene caused by administration of chemical substance, Gene No. 5600 ([2]; mRNA vs vehicle control group): −
- Behavior of gene caused by administration of chemical substance, Gene No. 1494 ([2]; mRNA vs vehicle control group): −
- Behavior of gene caused by administration of chemical substance, Gene No. 2045 ([2]; mRNA vs vehicle control group): −
- Behavior of gene caused by administration of chemical substance, Gene No. 2203 ([2]; mRNA vs vehicle control group): −
- Behavior of gene caused by administration of chemical substance, Gene No. 533 ([2]; mRNA vs vehicle control group): −
- Behavior of gene caused by administration of chemical substance, Gene No. 725 ([2]; mRNA vs vehicle control group): −
- Behavior of gene caused by administration of chemical substance, Gene No. 1163 ([2]; mRNA vs vehicle control group): −
- Behavior of gene caused by administration of chemical substance, Gene No. 4973 ([2]; mRNA vs vehicle control group): −
- Behavior of gene caused by administration of chemical substance, Gene No. 4095 ([2]; mRNA vs vehicle control group): −
- Behavior of gene caused by administration of chemical substance, Gene No. 1334 ([2]; mRNA vs vehicle control group): −
- Behavior of gene caused by administration of chemical substance, Gene No. 6620 ([2]; mRNA vs vehicle control group): −
- Behavior of gene caused by administration of chemical substance, Gene No. 6303 ([2]; mRNA vs vehicle control group): −
- Behavior of gene caused by administration of chemical substance, Gene No. 5878 ([2]; mRNA vs vehicle control group): −
- Behavior of gene caused by administration of chemical substance, Gene No. 1131 ([2]; mRNA vs vehicle control group): −
- Behavior of gene caused by administration of chemical substance, Gene No. 1562 ([2]; mRNA vs vehicle control group): −
- Behavior of gene caused by administration of chemical substance, Gene No. 1741 ([2]; mRNA vs vehicle control group): −
- Behavior of gene caused by administration of chemical substance, Gene No. 893 ([2]; mRNA vs vehicle control group): −
- Behavior of gene caused by administration of chemical substance, Gene No. 6026 ([2]; mRNA vs vehicle control group): −
- Behavior of gene caused by administration of chemical substance, Gene No. 154 ([2]; mRNA vs vehicle control group): −
- Behavior of gene caused by administration of chemical substance, Gene No. 1993 ([2]; mRNA vs vehicle control group): −
- Behavior of gene caused by administration of chemical substance, Gene No. 813 ([2]; mRNA vs vehicle control group): −
- Behavior of gene caused by administration of chemical substance, Gene No. 2494 ([2]; mRNA vs vehicle control group): −
- Behavior of gene caused by administration of chemical substance, Gene No. 2546 ([2]; mRNA vs vehicle control group): −
- Behavior of gene caused by administration of chemical substance, Gene No. 3776 ([2]; mRNA vs vehicle control group): −
- Behavior of gene caused by administration of chemical substance, Gene No. 3929 ([2]; mRNA vs vehicle control group): −
- Behavior of gene caused by administration of chemical substance, Gene No. 1119 ([2]; mRNA vs vehicle control group): −
- Behavior of gene caused by administration of chemical substance, Gene No. 6742 ([2]; mRNA vs vehicle control group): −
- Behavior of gene caused by administration of chemical substance, Gene No. 5634 ([2]; mRNA vs vehicle control group): +
- Behavior of gene caused by administration of chemical substance, Gene No. 5726 ([2]; mRNA vs vehicle control group): +
